From patent publication US4537776A, “Penetrating topical pharmaceutical compositions containing N-(2-hydroxyethyl) pyrrolidone” (priority 1983, dated 1985)

Experiment: Penetration study, Franz diffusion apparatus, human skin (*)
Type: in vitro ADME
Settings: Example 8; for Reduction of penetration on addition of the compound (in words): results similar to octanoic acid (reduces penetration by 50%)
Description: The following Penetration Studies carried out in the following manner. […] A normal saline solution is added to the lower diffusion cell, abutting the subcutaneous side of the skin. The test composition (comprising a solution of active or actives added to the carrier at the indicated formulation in a conventional manner by thoroughly mixing) is added to the diffusion cell abutting the epidermal side of the skin.
This cell assembly is kept at a constant temperature of about 31° C. At appropriate or desired intervals (these are the time designations given in the following examples) each diffusion cell assembly is opened and the diffusate from the cell abutting the subcutaneous side of the skin is withdrawn. Drug actives in a diffusate is measured using standard analytical techniques. Each trial is run on a separate sample of skin.

SMILES | Reduction of penetration on addition of the compound (in words) | Reduction of penetration on addition of the compound (added to 1% Triamcinolone in Propylene Glycol + 2% C14 OH, human skin, 0-72 hrs.)
CCCCCCCCCCCCCCCCO [cetyl alcohol] | Substantially similar results | –
CCCCCCCCCC(=O)O [decanoic acid] | Substantially similar results | –
CCCCCCCC(=O)O [octanoic acid] | – | 50%
CCCCCCCCCCCCCCCCCCO [stearyl alcohol] | Substantially similar results | –
